Earlier results on two compounds are cited in patent publication US20210213132A1, “FORMULATIONS OF SN-38 WITH POLY(AMINO ACID) BLOCK POLYMERS” (Tyndall Formulation Services, LLC, priority 2020, published 2021).

Like-named read-outs stand apart in the source and are kept apart here.

For one data set, the target named is T1, topoisomerase I (Homo sapiens, UniProt P11387).
T1 sequence (P11387 1-765): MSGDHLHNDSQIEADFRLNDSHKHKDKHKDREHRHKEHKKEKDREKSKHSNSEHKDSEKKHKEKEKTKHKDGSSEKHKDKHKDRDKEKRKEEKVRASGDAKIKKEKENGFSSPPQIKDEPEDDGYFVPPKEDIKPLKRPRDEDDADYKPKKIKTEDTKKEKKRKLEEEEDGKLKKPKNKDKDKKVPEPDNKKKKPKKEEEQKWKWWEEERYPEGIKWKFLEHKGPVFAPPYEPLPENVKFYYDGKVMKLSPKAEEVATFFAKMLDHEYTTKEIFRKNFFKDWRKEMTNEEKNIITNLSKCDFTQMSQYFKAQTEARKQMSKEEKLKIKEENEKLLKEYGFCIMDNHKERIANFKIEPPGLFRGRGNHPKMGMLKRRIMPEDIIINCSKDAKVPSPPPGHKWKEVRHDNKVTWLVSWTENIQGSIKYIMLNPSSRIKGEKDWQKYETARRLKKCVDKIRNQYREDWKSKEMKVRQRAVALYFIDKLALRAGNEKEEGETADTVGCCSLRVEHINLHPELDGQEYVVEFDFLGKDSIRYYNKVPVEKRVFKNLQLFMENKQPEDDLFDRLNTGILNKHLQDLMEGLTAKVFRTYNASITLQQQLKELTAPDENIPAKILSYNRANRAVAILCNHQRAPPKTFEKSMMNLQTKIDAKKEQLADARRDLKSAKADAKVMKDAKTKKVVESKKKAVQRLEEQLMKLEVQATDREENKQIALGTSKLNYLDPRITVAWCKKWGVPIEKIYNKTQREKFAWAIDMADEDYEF
Particulars: SN-38 versus irinotecan.

The subject of data set [1] is metastatic colorectal cancer patients. As to conditions: patients treated with irinotecan.
Data set [2] concerns carboxylesterases, specifically CES1 and CES2.

Consider `CCc1c2c(nc3ccc(O)cc13)-c1cc3c(c(=O)n1C2)COC(=O)[C@]3(O)CC` [SN-38], for which the “Solubility in aqueous media” value is reported as “extremely insoluble”. For the same compound, on topoisomerase I, the “Potency relative to irinotecan” value is listed as 100 to 1000 fold.

With `CCc1c2c(nc3ccc(OC(=O)N4CCC(N5CCCCC5)CC4)cc13)-c1cc3c(c(=O)n1C2)COC(=O)[C@]3(O)CC` [Irinotecan], in data set [1] (UGT1A1 *1/*1 genotype), the “Percentage of patients experiencing asthenia” value is 25%, the “Percentage of patients experiencing diarrhea” value was 17% and the “Percentage of patients experiencing neutropenia” value is listed as 15%. Also, in data set [1] (UGT1A1 *1/*28 genotype), the “Percentage of patients experiencing asthenia” value was 38%, the “Percentage of patients experiencing diarrhea” value is 33% and the “Percentage of patients experiencing neutropenia” value is given as 27%. Further, in data set [1] (UGT1A1 *28/*28 genotype), the “Percentage of patients experiencing asthenia” value is reported as 70%, the “Percentage of patients experiencing diarrhea” value was 70% and the “Percentage of patients experiencing neutropenia” value is reported as 40%. Moreover, in data set [2], the “Affinity of the carboxylesterases for irinotecan” value is “low”.
